In brackets after ≈: the same amount, converted by molar mass. Activity calls are given as the source filed them. No cut-off for these calls is given here.
How the values were obtained:
Pseudomonas aeruginosa [1] = test: Anti-bacterial activity against Pseudomonas aeruginosa ST235 assessed as inhibition of bacterial growth; assay type: functional; details: Pseudomonas aeruginosa, ST235; read-out: MIC
Staphylococcus aureus [2] = test: Anti-bacterial activity against Staphylococcus aureus CMCC (B) 26001 assessed as inhibition of bacterial growth; assay type: functional
Staphylococcus aureus [3] = test: Anti-bacterial activity against Staphylococcus aureus ATCC 6538 assessed as inhibition of bacterial growth; assay type: functional
Escherichia coli [4] = test: Anti-bacterial activity against Escherichia coli ATCC 25922 assessed as growth inhibition by measuring optical density measured at 1 times of MIC of norfloxacin by Checkerboard assay (reference value: 0.129); assay type: functional
Pseudomonas aeruginosa [5] = test: Anti-bacterial activity against Pseudomonas aeruginosa ATCC 27853 assessed as inhibition of bacterial growth; assay type: functional; details: Pseudomonas aeruginosa, ATCC 27853; read-out: MIC
Acinetobacter baumannii [6] = test: Anti-bacterial activity against Acinetobacter baumannii assessed as growth inhibition by measuring optical density measured at 1/2 time of MIC (reference value: 0.156); assay type: functional
Escherichia coli [7] = test: Anti-bacterial activity against Escherichia coli ATCC 25922 assessed as inhibition of bacterial growth; assay type: functional
Acinetobacter baumannii [8] = test: Anti-bacterial activity against Acinetobacter baumannii assessed as growth inhibition by measuring optical density measured at 1/8 time of MIC (reference value: 0.156); assay type: functional
Staphylococcus aureus [9] = test: Anti-bacterial activity against methicillin-resistant Staphylococcus aureus N315 assessed as inhibition of bacterial growth; assay type: functional; details: Staphylococcus aureus, N315; read-out: MIC
Pseudomonas aeruginosa [10] = test: Anti-bacterial activity against Pseudomonas aeruginosa ATCC 9027 assessed as inhibition of bacterial growth; assay type: functional
Staphylococcus aureus [11] = test: Anti-bacterial activity against Staphylococcus aureus ATCC 12600 assessed as inhibition of bacterial growth; assay type: functional; details: Staphylococcus aureus, ATCC 12600; read-out: MIC
Staphylococcus aureus [12] = test: Anti-bacterial activity against methicillin-resistant Staphylococcus aureus ATCC 43300 assessed as inhibition of bacterial growth; assay type: functional; details: Staphylococcus aureus, ATCC 43300; read-out: MIC
Acinetobacter baumannii [13] = test: Anti-bacterial activity against Acinetobacter baumannii assessed as fractional inhibitory concentration measured upto 9 hrs in presence of ethyl(E)-6-((4-(2-(2-aminothiazol-4-yl)-2-(methoxyimino)acetyl)piperazin-1-yl)methyl)-4-(2-butyl-4-chloro-1H-imidazole-5-yl)-2-oxo-1,2,3,4-tetrahydropyrimidine-5-carboxylate; assay type: functional
Staphylococcus aureus [14] = test: Anti-bacterial activity against Staphylococcus aureus ATCC 29213 assessed as inhibition of bacterial growth; assay type: functional; details: Staphylococcus aureus, ATCC 29213; read-out: MIC
Acinetobacter baumannii [15] = test: Drug resistance, ratio of MIC for Acinetobacter baumannii after 20 passages exposure to MIC for Acinetobacter baumannii after first exposure; assay type: functional
Escherichia coli [16] = test: Anti-bacterial activity against Escherichia coli ATCC 25922 assessed as growth inhibition by measuring optical density measured at 1/2 times of MIC of norfloxacin by Checkerboard assay (reference value: 0.129); assay type: functional
Acinetobacter baumannii [17] = test: Anti-bacterial activity against Acinetobacter baumannii assessed as inhibition of bacterial growth measured after 6-7 th passages at sub-MIC concentration by multiple resistance study; assay type: functional, organism-based
Pseudomonas aeruginosa [18] = test: Anti-bacterial activity against Pseudomonas aeruginosa ATCC 15442 assessed as inhibition of bacterial growth; assay type: functional; details: Pseudomonas aeruginosa, ATCC 15442; read-out: MIC
Staphylococcus aureus [19] = test: Anti-bacterial activity against Staphylococcus aureus ATCC 1708 assessed as inhibition of bacterial growth; assay type: functional; details: Staphylococcus aureus, ATCC 1708; read-out: MIC
Pseudomonas aeruginosa [20] = test: Anti-bacterial activity against Pseudomonas aeruginosa CMCC (B) 10104 assessed as inhibition of bacterial growth; assay type: functional; details: Pseudomonas aeruginosa, CMCC (B) 10104; read-out: MIC
Staphylococcus aureus [21] = test: Anti-bacterial activity against Staphylococcus aureus ATCC 25923 assessed as inhibition of bacterial growth; assay type: functional; details: Staphylococcus aureus, ATCC 25923; read-out: MIC
Escherichia coli [22] = test: Anti-bacterial activity against Escherichia coli ATCC 25922 assessed as fractional inhibitory concentration measured upto 9 hrs in presence of ethyl(E)-6-((4-(2-(2-aminothiazol-4-yl)-2-(methoxyimino)acetyl)piperazin-1-yl)methyl)-4-(2-butyl-4-chloro-1H-imidazole-5-yl)-2-oxo-1,2,3,4-tetrahydropyrimidine-5-carboxylate; assay type: functional
Escherichia coli [23] = test: Anti-bacterial activity against Escherichia coli ATCC 25922 assessed as growth inhibition by measuring optical density measured at 2 times of MIC of norfloxacin by Checkerboard assay (reference value: 0.129); assay type: functional
Klebsiella pneumoniae = test: Anti-bacterial activity against Klebsiella pneumoniae KPN325 assessed as inhibition of bacterial growth; assay type: functional; details: Klebsiella pneumoniae, KPN325; read-out: MIC
Enterococcus faecalis = test: Anti-bacterial activity against Enterococcus faecalis V583 assessed as inhibition of bacterial growth; assay type: functional
Acinetobacter baumannii [24] = test: Anti-bacterial activity against Acinetobacter baumannii assessed as growth inhibition by measuring optical density measured at 1/4 time of MIC (reference value: 0.156); assay type: functional
Escherichia coli [25] = test: Anti-bacterial activity against Escherichia coli ATCC 25922 assessed as growth inhibition by measuring optical density measured at 1/8 times of MIC of norfloxacin by Checkerboard assay (reference value: 0.129); assay type: functional
Escherichia coli [26] = test: Anti-bacterial activity against Escherichia coli ATCC 25922 assessed as inhibition of bacterial growth measured after 6-7 th passages at sub-MIC concentration by multiple resistance study; assay type: functional, organism-based
Escherichia coli [27] = test: Anti-bacterial activity against Escherichia coli ATCC 25922 assessed as growth inhibition by measuring optical density measured at 1/4 times of MIC of norfloxacin by Checkerboard assay (reference value: 0.129); assay type: functional
Escherichia coli [28] = test: Anti-bacterial activity against Escherichia coli JM109 assessed as inhibition of bacterial growth; assay type: functional
Acinetobacter baumannii [29] = test: Anti-bacterial activity against Acinetobacter baumannii R674 assessed as inhibition of bacterial growth; assay type: functional
Escherichia coli [30] = test: Drug resistance, ratio of MIC for Escherichia coli ATCC 25922 after 20 passages exposure to MIC for Escherichia coli ATCC 25922 after first exposure; assay type: functional
Acinetobacter baumannii [31] = test: Anti-bacterial activity against Acinetobacter baumannii assessed as growth inhibition by measuring optical density measured at 1 time of MIC (reference value: 0.156); assay type: functional
Acinetobacter baumannii [32] = test: Anti-bacterial activity against Acinetobacter baumannii assessed as growth inhibition by measuring optical density measured at 2 time of MIC (reference value: 0.156); assay type: functional
Staphylococcus aureus [33] = test: Anti-bacterial activity against Staphylococcus aureus CMCC (B) 26003 assessed as inhibition of bacterial growth; assay type: functional
Candida tropicalis = test: Anti-fungal activity against Candida tropicalis assessed as inhibition of fungal growth; assay type: functional; details: Candida tropicalis; read-out: MIC
Candida parapsilosis = test: Anti-fungal activity against Candida parapsilosis assessed as inhibition of fungal growth; assay type: functional; details: Lodderomyces parapsilosis; read-out: MIC
Candida albicans [34] = test: Anti-fungal activity against Candida albicans assessed as inhibition of fungal growth; assay type: functional; details: Candida albicans; read-out: MIC
Candida albicans [35] = test: Anti-fungal activity against Candida albicans 90023 assessed as inhibition of fungal growth; assay type: functional

SMILES	MIC (Pseudomonas aeruginosa [1])	MIC (Staphylococcus aureus [2])	MIC (Staphylococcus aureus [3])	MIC (Pseudomonas aeruginosa [5])	MIC (Escherichia coli [7])	MIC (Staphylococcus aureus [9])	MIC (Pseudomonas aeruginosa [10])	MIC (Staphylococcus aureus [11])	MIC (Staphylococcus aureus [12])	MIC (Staphylococcus aureus [14])	MIC (Pseudomonas aeruginosa [18])	MIC (Staphylococcus aureus [19])	MIC (Pseudomonas aeruginosa [20])	MIC (Staphylococcus aureus [21])	MIC (Klebsiella pneumoniae)	MIC (Enterococcus faecalis)	MIC (Escherichia coli [28])	MIC (Acinetobacter baumannii [29])	MIC (Staphylococcus aureus [33])	MIC (Candida tropicalis)	further results
CCn1cc(C(=O)O)c(=O)c2cc(F)c(N3CCNCC3)cc21 [NORFLOXACIN]	6 µM (≈ 1.92 µg/mL)	6 µM (≈ 1.92 µg/mL)	6 µM (≈ 1.92 µg/mL)	25 µM (≈ 7.98 µg/mL)	13 µM (≈ 4.15 µg/mL)	6 µM (≈ 1.92 µg/mL)	6 µM (≈ 1.92 µg/mL)	6 µM (≈ 1.92 µg/mL)	3 µM (≈ 0.958 µg/mL)	6 µM (≈ 1.92 µg/mL)	6 µM (≈ 1.92 µg/mL)	3 µM (≈ 0.958 µg/mL)	6 µM (≈ 1.92 µg/mL)	6 µM (≈ 1.92 µg/mL)	3 µM (≈ 0.958 µg/mL)	6 µM (≈ 1.92 µg/mL)	25 µM (≈ 7.98 µg/mL)	13 µM (≈ 4.15 µg/mL)	6 µM (≈ 1.92 µg/mL)	–	OD (Escherichia coli [4]): 0.129; OD (Acinetobacter baumannii [6]): 0.141; OD (Acinetobacter baumannii [8]): 0.155; FIC (Acinetobacter baumannii [13]): 0.25; Ratio (Acinetobacter baumannii [15]): 32; OD (Escherichia coli [16]): 0.128; Activity (Acinetobacter baumannii [17]): inactive; FIC (Escherichia coli [22]): 0.25; OD (Escherichia coli [23]): 0.128; OD (Acinetobacter baumannii [24]): 0.142; OD (Escherichia coli [25]): 0.125; Activity (Escherichia coli [26]): inactive; OD (Escherichia coli [27]): 0.128; Ratio (Escherichia coli [30]): 16; OD (Acinetobacter baumannii [31]): 0.138; OD (Acinetobacter baumannii [32]): 0.136
CCOC(=O)C1=C(CN2CCN(C(=O)/C(=N/OC)c3csc(N)n3)CC2)NC(=O)NC1c1ccc(O)c(Br)c1 (configuration not stated)	52 µM (≈ 32.4 µg/mL)	52 µM (≈ 32.4 µg/mL)	52 µM (≈ 32.4 µg/mL)	52 µM (≈ 32.4 µg/mL)	52 µM (≈ 32.4 µg/mL)	103 µM (≈ 64.1 µg/mL)	103 µM (≈ 64.1 µg/mL)	52 µM (≈ 32.4 µg/mL)	26 µM (≈ 16.2 µg/mL)	52 µM (≈ 32.4 µg/mL)	52 µM (≈ 32.4 µg/mL)	103 µM (≈ 64.1 µg/mL)	103 µM (≈ 64.1 µg/mL)	26 µM (≈ 16.2 µg/mL)	52 µM (≈ 32.4 µg/mL)	13 µM (≈ 8.09 µg/mL)	52 µM (≈ 32.4 µg/mL)	26 µM (≈ 16.2 µg/mL)	103 µM (≈ 64.1 µg/mL)	415 µM (≈ 258 µg/mL)	MIC (Candida parapsilosis): 415 µM (≈ 258 µg/mL); MIC (Candida albicans [34]): 415 µM (≈ 258 µg/mL); MIC (Candida albicans [35]): 104 µM (≈ 64.7 µg/mL)
CCOC(=O)C1=C(CN2CCN(C(=O)/C(=N/OC)c3csc(N)n3)CC2)NC(=O)NC1c1ccc(Cl)cc1Cl (configuration not stated)	54 µM (≈ 32.2 µg/mL)	54 µM (≈ 32.2 µg/mL)	54 µM (≈ 32.2 µg/mL)	54 µM (≈ 32.2 µg/mL)	54 µM (≈ 32.2 µg/mL)	108 µM (≈ 64.4 µg/mL)	108 µM (≈ 64.4 µg/mL)	54 µM (≈ 32.2 µg/mL)	27 µM (≈ 16.1 µg/mL)	108 µM (≈ 64.4 µg/mL)	54 µM (≈ 32.2 µg/mL)	54 µM (≈ 32.2 µg/mL)	54 µM (≈ 32.2 µg/mL)	54 µM (≈ 32.2 µg/mL)	108 µM (≈ 64.4 µg/mL)	27 µM (≈ 16.1 µg/mL)	108 µM (≈ 64.4 µg/mL)	27 µM (≈ 16.1 µg/mL)	108 µM (≈ 64.4 µg/mL)	449 µM (≈ 268 µg/mL)	MIC (Candida parapsilosis): 449 µM (≈ 268 µg/mL); MIC (Candida albicans [34]): 449 µM (≈ 268 µg/mL); MIC (Candida albicans [35]): 449 µM (≈ 268 µg/mL)
CCOC(=O)C1=C(CN2CCN(C(=O)/C(=N/OC)c3csc(N)n3)CC2)NC(=O)NC1c1ccc(OC)c(OC)c1OC (configuration not stated)	52 µM (≈ 32.1 µg/mL)	415 µM (≈ 256 µg/mL)	104 µM (≈ 64.2 µg/mL)	52 µM (≈ 32.1 µg/mL)	52 µM (≈ 32.1 µg/mL)	415 µM (≈ 256 µg/mL)	104 µM (≈ 64.2 µg/mL)	415 µM (≈ 256 µg/mL)	208 µM (≈ 128 µg/mL)	208 µM (≈ 128 µg/mL)	104 µM (≈ 64.2 µg/mL)	208 µM (≈ 128 µg/mL)	104 µM (≈ 64.2 µg/mL)	208 µM (≈ 128 µg/mL)	26 µM (≈ 16.1 µg/mL)	208 µM (≈ 128 µg/mL)	104 µM (≈ 64.2 µg/mL)	104 µM (≈ 64.2 µg/mL)	208 µM (≈ 128 µg/mL)	398 µM (≈ 246 µg/mL)	MIC (Candida parapsilosis): 398 µM (≈ 246 µg/mL); MIC (Candida albicans [34]): 398 µM (≈ 246 µg/mL); MIC (Candida albicans [35]): 398 µM (≈ 246 µg/mL)
CCCCc1nc(Cl)c(C2NC(=O)NC(CN3CCN(CC(=O)c4ccc(F)cc4)CC3)=C2C(=O)OCC)[nH]1 (configuration not stated)	57 µM (≈ 32 µg/mL)	57 µM (≈ 32 µg/mL)	229 µM (≈ 128 µg/mL)	57 µM (≈ 32 µg/mL)	114 µM (≈ 64 µg/mL)	229 µM (≈ 128 µg/mL)	114 µM (≈ 64 µg/mL)	57 µM (≈ 32 µg/mL)	114 µM (≈ 64 µg/mL)	57 µM (≈ 32 µg/mL)	114 µM (≈ 64 µg/mL)	114 µM (≈ 64 µg/mL)	114 µM (≈ 64 µg/mL)	57 µM (≈ 32 µg/mL)	229 µM (≈ 128 µg/mL)	57 µM (≈ 32 µg/mL)	114 µM (≈ 64 µg/mL)	114 µM (≈ 64 µg/mL)	114 µM (≈ 64 µg/mL)	457 µM (≈ 256 µg/mL)	MIC (Candida parapsilosis): 457 µM (≈ 256 µg/mL); MIC (Candida albicans [34]): 457 µM (≈ 256 µg/mL); MIC (Candida albicans [35]): 29 µM (≈ 16.3 µg/mL)
